PubChem BioAssay (NCI)
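Where inhibition never reached the appropriate level, the endpoint shown equals the highest concentration tested. Otherwise, values were interpolated linearly from a five-concentration, 48-hour dose response in 96-well plates. At the TGI there is no net growth.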

What was measured:
Assay in all cases: NCI-60 cell line screen, 48 h
SNB-78 CNS = system: SNB-78 CNS
HL-60(TB) leukemia = system: HL-60(TB) leukemia
UO-31 renal = system: UO-31 renal
SF-539 CNS = system: SF-539 CNS
OVCAR-4 ovarian = system: OVCAR-4 ovarian
CCRF-CEM leukemia = system: CCRF-CEM leukemia
786-0 renal = system: 786-0 renal
K-562 leukemia = system: K-562 leukemia
NCI-H460 lung = system: NCI-H460 lung
LXFL 529 NSCLC = system: LXFL 529 NSCLC
SNB-75 CNS = system: SNB-75 CNS
DMS 114 small cell lung = system: DMS 114 small cell lung
SW-620 colon = system: SW-620 colon
LOX IMVI melanoma = system: LOX IMVI melanoma
HOP-18 NSCLC = system: HOP-18 NSCLC
OVCAR-8 ovarian = system: OVCAR-8 ovarian
HOP-92 NSCLC = system: HOP-92 NSCLC
SNB-19 CNS = system: SNB-19 CNS
DLD-1 colon = system: DLD-1 colon
OVCAR-3 ovarian = system: OVCAR-3 ovarian
A549 NSCLC = system: A549 NSCLC
COLO 205 colon = system: COLO 205 colon
CAKI-1 renal = system: CAKI-1 renal
SK-MEL-2 melanoma = system: SK-MEL-2 melanoma
KM20L2 colon = system: KM20L2 colon
SF-268 CNS = system: SF-268 CNS
UACC-62 melanoma = system: UACC-62 melanoma
NCI-H226 lung = system: NCI-H226 lung
HCC-2998 colon = system: HCC-2998 colon
SR leukemia = system: SR leukemia
RXF-631 renal = system: RXF-631 renal
SN12C renal = system: SN12C renal
TK-10 renal = system: TK-10 renal
A498 renal = system: A498 renal
M14 melanoma = system: M14 melanoma
HCT-15 colon = system: HCT-15 colon
NCI-H23 lung = system: NCI-H23 lung
M19-MEL melanoma = system: M19-MEL melanoma
OVCAR-5 ovarian = system: OVCAR-5 ovarian
SF-295 CNS = system: SF-295 CNS
NCI-H522 lung = system: NCI-H522 lung
HCT-116 colon = system: HCT-116 colon
DMS 273 small cell lung = system: DMS 273 small cell lung
UACC-257 melanoma = system: UACC-257 melanoma
SK-OV-3 ovarian = system: SK-OV-3 ovarian
MALME-3M melanoma = system: MALME-3M melanoma
HT29 colon = system: HT29 colon
U251 CNS = system: U251 CNS
ACHN renal = system: ACHN renal
MOLT-4 leukemia = system: MOLT-4 leukemia
IGROV1 ovarian = system: IGROV1 ovarian
EKVX NSCLC = system: EKVX NSCLC
SK-MEL-5 melanoma = system: SK-MEL-5 melanoma
KM12 colon = system: KM12 colon
HOP-62 NSCLC = system: HOP-62 NSCLC
RXF 393 renal = system: RXF 393 renal
SK-MEL-28 melanoma = system: SK-MEL-28 melanoma
RPMI-8226 leukemia = system: RPMI-8226 leukemia

## C=CCNC(=O)/C=C\C(=O)O
SNB-78 CNS
  TGI: > 100 µM
HL-60(TB) leukemia
  TGI: > 100 µM
UO-31 renal
  TGI: > 100 µM
SF-539 CNS
  TGI: > 100 µM
OVCAR-4 ovarian
  TGI: > 100 µM
CCRF-CEM leukemia
  TGI: > 100 µM
786-0 renal
  TGI: > 100 µM
K-562 leukemia
  TGI: > 100 µM
NCI-H460 lung
  TGI: > 100 µM
LXFL 529 NSCLC
  TGI: > 100 µM
SNB-75 CNS
  TGI: > 100 µM
DMS 114 small cell lung
  TGI: > 100 µM
SW-620 colon
  TGI: > 100 µM
LOX IMVI melanoma
  TGI: > 100 µM
HOP-18 NSCLC
  TGI: > 100 µM
OVCAR-8 ovarian
  TGI: > 100 µM
HOP-92 NSCLC
  TGI: > 100 µM
SNB-19 CNS
  TGI: > 100 µM
DLD-1 colon
  TGI: > 100 µM
OVCAR-3 ovarian
  TGI: > 100 µM
A549 NSCLC
  TGI: > 100 µM
COLO 205 colon
  TGI: > 100 µM
CAKI-1 renal
  TGI: > 100 µM
SK-MEL-2 melanoma
  TGI: > 100 µM
KM20L2 colon
  TGI: > 100 µM
SF-268 CNS
  TGI: > 100 µM
UACC-62 melanoma
  TGI: > 100 µM
NCI-H226 lung
  TGI: > 100 µM
HCC-2998 colon
  TGI: > 100 µM
SR leukemia
  TGI: > 100 µM
RXF-631 renal
  TGI: > 100 µM
SN12C renal
  TGI: > 100 µM
TK-10 renal
  TGI: > 100 µM
A498 renal
  TGI: > 100 µM
M14 melanoma
  TGI: > 100 µM
HCT-15 colon
  TGI: > 100 µM
NCI-H23 lung
  TGI: > 100 µM
M19-MEL melanoma
  TGI: > 100 µM
OVCAR-5 ovarian
  TGI: > 100 µM
SF-295 CNS
  TGI: > 100 µM
NCI-H522 lung
  TGI: > 100 µM
HCT-116 colon
  TGI: > 100 µM
DMS 273 small cell lung
  TGI: > 100 µM
UACC-257 melanoma
  TGI: > 100 µM
SK-OV-3 ovarian
  TGI: > 100 µM
MALME-3M melanoma
  TGI: > 100 µM
HT29 colon
  TGI: > 100 µM
U251 CNS
  TGI: > 100 µM
ACHN renal
  TGI: > 100 µM
MOLT-4 leukemia
  TGI: > 100 µM
IGROV1 ovarian
  TGI: > 100 µM
EKVX NSCLC
  TGI: > 100 µM
SK-MEL-5 melanoma
  TGI: > 100 µM
KM12 colon
  TGI: > 100 µM
HOP-62 NSCLC
  TGI: > 100 µM
RXF 393 renal
  TGI: > 100 µM
SK-MEL-28 melanoma
  TGI: > 100 µM

## C[N+]1(C)C/C(=C/c2ccc(F)cc2)C(=O)/C(=C\c2ccc(F)cc2)C1
SNB-78 CNS
  TGI: > 100 µM
HL-60(TB) leukemia
  TGI: 50.3 µM
UO-31 renal
  TGI: > 100 µM
SF-539 CNS
  TGI: > 100 µM
OVCAR-4 ovarian
  TGI: > 100 µM
CCRF-CEM leukemia
  TGI: 68.5 µM
786-0 renal
  TGI: > 100 µM
K-562 leukemia
  TGI: > 100 µM
NCI-H460 lung
  TGI: > 100 µM
LXFL 529 NSCLC
  TGI: > 100 µM
SNB-75 CNS
  TGI: > 100 µM
DMS 114 small cell lung
  TGI: > 100 µM
SW-620 colon
  TGI: > 100 µM
LOX IMVI melanoma
  TGI: > 100 µM
HOP-18 NSCLC
  TGI: > 100 µM
OVCAR-8 ovarian
  TGI: > 100 µM
HOP-92 NSCLC
  TGI: > 100 µM
SNB-19 CNS
  TGI: > 100 µM
DLD-1 colon
  TGI: > 100 µM
OVCAR-3 ovarian
  TGI: > 100 µM
A549 NSCLC
  TGI: > 100 µM
COLO 205 colon
  TGI: > 100 µM
SK-MEL-2 melanoma
  TGI: > 100 µM
KM20L2 colon
  TGI: > 100 µM
SF-268 CNS
  TGI: > 100 µM
UACC-62 melanoma
  TGI: 33.5 µM
HCC-2998 colon
  TGI: > 100 µM
RPMI-8226 leukemia
  TGI: 57.8 µM
RXF-631 renal
  TGI: > 100 µM
SN12C renal
  TGI: 11.9 µM
TK-10 renal
  TGI: > 100 µM
A498 renal
  TGI: > 100 µM
M14 melanoma
  TGI: > 100 µM
HCT-15 colon
  TGI: > 100 µM
NCI-H23 lung
  TGI: > 100 µM
M19-MEL melanoma
  TGI: > 100 µM
OVCAR-5 ovarian
  TGI: > 100 µM
SF-295 CNS
  TGI: > 100 µM
NCI-H522 lung
  TGI: 36.9 µM
HCT-116 colon
  TGI: > 100 µM
DMS 273 small cell lung
  TGI: 86.2 µM
UACC-257 melanoma
  TGI: > 100 µM
SK-OV-3 ovarian
  TGI: > 100 µM
MALME-3M melanoma
  TGI: > 100 µM
U251 CNS
  TGI: 42.7 µM
ACHN renal
  TGI: > 100 µM
MOLT-4 leukemia
  TGI: 45.5 µM
IGROV1 ovarian
  TGI: 70.1 µM
EKVX NSCLC
  TGI: > 100 µM
KM12 colon
  TGI: > 100 µM
HOP-62 NSCLC
  TGI: > 100 µM
RXF 393 renal
  TGI: > 100 µM
SK-MEL-28 melanoma
  TGI: 40.8 µM
